US8697869B2, “3-(heteroaryl-amino)-1,2,3,4-tetrahydro-9H-carbazole derivatives and their use as prostaglandin D2 receptor modulators” (Actelion Pharmaceuticals Ltd., priority 2010, dated 2014)

Assays:
hCRTH2 receptor [1] = target: T1, hCRTH2 receptor (Homo sapiens (Human), UniProt Q9Y5Y4); assay: hCRTH2 receptor membranes radioligand displacement assay (3H-PGD2); settings: 3H-PGD2 2.5 nM, HEK293-hCRTH2 membranes, Binding-Buffer with 0.1% BSA
Description: Biological Assays: Preparation of hCRTH2 Receptor Membranes and Radioligand Displacement Assay:
(§1) First, recombinant HEK293-hCRTH2 cells were detached from culture plates into 5 ml buffer A/plate (Buffer A: 5 mM Tris, 1 mM MgCl2-6H2O pH=7.4) using a rubber policeman. Cells were then transferred into centrifugation tubes and centrifuged for 5 min at 400 g. The cell pellet was resuspended in the same buffer and tubes were frozen at −80° C. Cells were thawed and membrane fragments were generated by homogenization using a polytron homogenizer (30 seconds). The membrane fragments were then centrifuged at 3000 g for 20 minutes and resuspended in buffer C (Buffer C: 75 mM Tris, 25 mM MgCl2, 250 mM Saccharose pH 7.4). Aliquots of membrane fragements were stored at −20° C.
(§2) Binding assay was performed in a final assay volume of 250 μl. First, 25 μl of test compound, previously diluted in Binding-Buffer (Binding-Buffer: 50 mM Tris-Base, 100 mM NaCl, 1 mM EDTA, 0.1% BSA (protease free), 0.01% NaN3, 10 mM MnCl2 pH 7.0) was placed into each well. After addition of 75 μl Binding-Buffer, 50 μl of the radioligand ^3H-PGD2 (at 2.5 nM (220.000 dpm/well) from ANAWA ART0662) was added to each well. Binding assay was started by addition of 100 μl CRTH2 membrane fragments, reaching a final concentration of 20 μg/well. For non-specific binding, PGD2 was added to the reaction mixture to […] final concentration. This assay mix was incubated for 90 minutes at room temperature and then filtered through a GF/C filter 96-well plate which was pre-soaked for 3 hours in 0.5% polyethyleneimine (PEI). The filter-wells were washed three times with ice cold Binding-Buffer. Then, 40 μl of Microscint-40 (Packard) was added to each well and the retained radioactivity quantified in a Topcount (Packard).

hCRTH2 receptor [2] = target: T1, hCRTH2 receptor; assay: Radioligand displacement assay in presence of human serum albumin (HSA); settings: 3H-PGD2 2.5 nM, Binding-Buffer with 0.5% HSA instead of 0.1% BSA
Description: as §1, §2
Radioligand Displacement Assay-Human Serum Albumin (HSA):
Radioligand displacement assay in presence of human serum albumin (HSA) was performed as described above, with following modifications. Binding-Buffer-HSA: Binding-buffer+0.5% Sigma Albumin from Human serum A1887 (instead of 0.1% BSA). A volume of 25 μl test compound, previously diluted in Binding-Buffer-HSA was placed into each well. After addition of 75 μl Binding-Buffer-HSA, 50 μl of ^3H-PGD2 (at 2.5 nM (220.000 dpm/well) from ANAWA ART0662) was added to each well. Remaining protocol was identical as described above.

T1 sequence (Q9Y5Y4 whole entry): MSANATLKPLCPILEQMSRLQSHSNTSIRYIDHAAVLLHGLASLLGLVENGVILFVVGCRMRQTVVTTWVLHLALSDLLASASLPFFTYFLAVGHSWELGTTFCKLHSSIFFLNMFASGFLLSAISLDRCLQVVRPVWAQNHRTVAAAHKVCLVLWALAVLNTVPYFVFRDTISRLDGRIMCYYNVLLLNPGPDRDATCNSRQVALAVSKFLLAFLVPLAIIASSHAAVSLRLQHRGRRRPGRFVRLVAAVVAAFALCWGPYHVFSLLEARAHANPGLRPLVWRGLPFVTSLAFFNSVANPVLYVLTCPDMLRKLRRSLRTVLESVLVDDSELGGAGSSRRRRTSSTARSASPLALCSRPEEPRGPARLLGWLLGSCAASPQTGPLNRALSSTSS

Compound | IC50 (hCRTH2 receptor [1]) [nM] | IC50 (hCRTH2 receptor [2]) [nM]
O=C(O)Cn1c2c(c3cc(F)ccc31)C[C@H](Nc1ncc(C(F)(F)F)cn1)CC2 [Example 5, (3R)-2-(6-fluoro-3-((5-(trifluoromethyl)pyrimidin-2-yl)amino)-3,4-dihydro-1H-carbazol-9-(2H)-yl)acetic acid] | 27 | –
O=C(O)Cn1c2c(c3cc(F)ccc31)C[C@H](Nc1nccc(C(F)(F)F)n1)CC2 [Example 6, (3R)-2-(6-fluoro-3-((4-(trifluoromethyl)pyrimidin-2-yl)amino)-3,4-dihydro-1H-carbazol-9-(2H)-yl)acetic acid] | 46 | –
CN(c1ncc(C(F)(F)F)cn1)[C@@H]1CCc2c(c3cc(F)ccc3n2CC(=O)O)C1 [Example 12, (3R)-2-(6-fluoro-3-(methyl(5-(trifluoromethyl)pyrimidin-2-yl)amino)-3,4-dihydro-1H-carbazol-9(2H)-yl)acetic acid] | 141 | –
CN(c1nccc(C(F)(F)F)n1)[C@H]1CCc2c(c3cc(F)ccc3n2CC(=O)O)C1 [Example 13, (3S)-2-(6-fluoro-3-(methyl(4-(trifluoromethyl)pyrimidin-2-yl)amino)-3,4-dihydro-1H-carbazol-9(2H)-yl)acetic acid] | 12 | 769
CN(c1nccc(C(F)(F)F)n1)[C@@H]1CCc2c(c3cc(F)ccc3n2CC(=O)O)C1 [Example 14, (3R)-2-(6-fluoro-3-(methyl(4-(trifluoromethyl)pyrimidin-2-yl)amino)-3,4-dihydro-1H-carbazol-9(2H)-yl)acetic acid] | 67 | –
Cc1ccnc(N(C)[C@H]2CCc3c(c4cc(F)ccc4n3CC(=O)O)C2)n1 [Example 17, (3S)-2-(6-fluoro-3-(methyl(4-methylpyrimidin-2-yl)amino)-3,4-dihydro-1H-carbazol-9(2H)-yl)acetic acid] | 107 | –
CN(c1ncnc2ccccc12)[C@H]1CCc2c(c3cc(F)ccc3n2CC(=O)O)C1 [Example 21, (3S)-2-(6-fluoro-3-(methyl(quinazolin-4-yl)amino)-3,4-dihydro-1H-carbazol-9(2H)-yl)acetic acid] | 26 | –
COc1cnc(N(C)[C@H]2CCc3c(c4cc(F)ccc4n3CC(=O)O)C2)nc1 [Example 31, (3S)-2-(6-fluoro-3-((5-methoxypyrimidin-2-yl)(methyl)amino)-3,4-dihydro-1H-carbazol-9(2H)-yl)acetic acid] | 7.2 | 43
CN(c1ccc(Cl)cn1)[C@H]1CCc2c(c3cc(F)ccc3n2CC(=O)O)C1 [Example 37, (3S)-2-(3-((5-chloropyridin-2-yl)(methyl)amino)-6-fluoro-3,4-dihydro-1H-carbazol-9(2H)-yl)acetic acid] | 5.2 | 13
CN(c1cnc2ccccc2n1)[C@H]1CCc2c(c3cc(F)ccc3n2CC(=O)O)C1 [Example 44, (3S)-2-(6-fluoro-3-(methyl(quinoxalin-2-yl)amino)-3,4-dihydro-1H-carbazol-9(2H)-yl)acetic acid] | 11 | 176
CN(c1nc(C(C)(C)C)cs1)C1CCc2c(c3cc(F)ccc3n2CC(=O)O)C1 (stereo not shown) [Example 46, 2-(3-((4-(tert-butyl)thiazol-2-yl)(methyl)amino)-6-fluoro-3,4-dihydro-1H-carbazol-9(2H)-yl)acetic acid] | 73 | –
CN(c1cc(C(C)(C)C)on1)C1CCc2c(c3cc(F)ccc3n2CC(=O)O)C1 (stereo not shown) [Example 48, 2-(3-((5-(tert-butyl)isoxazol-3-yl)(methyl)amino)-6-fluoro-3,4-dihydro-1H-carbazol-9(2H)-yl)acetic acid] | 72 | –
CN(c1ccn(C)n1)C1CCc2c(c3cc(F)ccc3n2CC(=O)O)C1 (stereo not shown) [Example 49, 2-(6-fluoro-3-(methyl(1-methyl-1H-pyrazol-3-yl)amino)-3,4-dihydro-1H-carbazol-9(2H)-yl)acetic acid] | 37 | –
CN(c1ccon1)C1CCc2c(c3cc(F)ccc3n2CC(=O)O)C1 (stereo not shown) [Example 51, 2-(6-fluoro-3-(isoxazol-3-yl(methyl)amino)-3,4-dihydro-1H-carbazol-9(2H)-yl)acetic acid] | 6.4 | 53

More lines, in order of falling IC50 (hCRTH2 receptor [1]), values ahead:

IC50 (hCRTH2 receptor [1]) [nM] | IC50 (hCRTH2 receptor [2]) [nM] | Compound
809 | – | CC(C)N(c1ncc(Cl)cn1)[C@H]1CCc2c(c3cc(F)ccc3n2CC(=O)O)C1 [Example 26, (3S)-2-(3-((5-chloropyrimidin-2-yl)(isopropyl)amino)-6-fluoro-3,4-dihydro-1H-carbazol-9(2H)-yl)acetic acid]
127 | – | Cc1nnc(N(C)C2CCc3c(c4cc(F)ccc4n3CC(=O)O)C2)s1 (stereo not shown) [Example 50, 2-(6-fluoro-3-(methyl(5-methyl-1,3,4-thiadiazol-2-yl)amino)-3,4-dihydro-1H-carbazol-9(2H)-yl)acetic acid]
125 | – | Cc1cc(C)nc(N(C)[C@H]2CCc3c(c4cc(F)ccc4n3CC(=O)O)C2)n1 [Example 16, (3S)-2-(3-((4,6-dimethylpyrimidin-2-yl)(methyl)amino)-6-fluoro-3,4-dihydro-1H-carbazol-9(2H)-yl)acetic acid]
58 | – | CN(c1ncc(Cl)cn1)[C@@H]1CCc2c(c3cc(F)ccc3n2CC(=O)O)C1 [Example 10, (3R)-2-(3-((5-chloropyrimidin-2-yl)(methyl)amino)-6-fluoro-3,4-dihydro-1H-carbazol-9(2H)-yl)acetic acid]
55 | – | Cc1nc(N(C)[C@H]2CCc3c(c4cc(F)ccc4n3CC(=O)O)C2)c2ccccc2n1 [Example 23, (3S)-2-(6-fluoro-3-(methyl(2-methylquinazolin-4-yl)amino)-3,4-dihydro-1H-carbazol-9(2H)-yl)acetic acid]
42 | – | CN(c1ncc(F)cn1)[C@@H]1CCc2c(c3cc(F)ccc3n2CC(=O)O)C1 [Example 8, (3R)-2-(6-fluoro-3-((5-fluoropyrimidin-2-yl)(methyl)amino)-3,4-dihydro-1H-carbazol-9(2H)-yl)acetic acid]
27 | – | O=C(O)Cn1c2c(c3cc(F)ccc31)C[C@H](Nc1ncc(F)cn1)CC2 [Example 2, (3R)-2-(6-fluoro-3-((5-fluoropyrimidin-2-yl)amino)-3,4-dihydro-1H-carbazol-9-(2H)-yl)acetic acid]
16 | 380 | CN(c1nc(C(F)(F)F)nc2ccccc12)[C@H]1CCc2c(c3cc(F)ccc3n2CC(=O)O)C1 [Example 22, (3S)-2-(6-fluoro-3-(methyl(2-(trifluoromethyl)quinazolin-4-yl)amino)-3,4-dihydro-1H-carbazol-9(2H)-yl)acetic acid]
15 | 68 | O=C(O)Cn1c2c(c3cc(F)ccc31)C[C@@H](N(CC(F)F)c1ncc(Cl)cn1)CC2 [Example 41, (3S)-2-(3-((5-chloropyrimidin-2-yl)(2,2-difluoroethyl)amino)-6-fluoro-3,4-dihydro-1H-carbazol-9(2H)-yl)acetic acid]
14 | 402 | CN(c1nc(C(F)(F)F)cs1)C1CCc2c(c3cc(F)ccc3n2CC(=O)O)C1 (stereo not shown) [Example 47, 2-(6-fluoro-3-(methyl(4-(trifluoromethyl)thiazol-2-yl)amino)-3,4-dihydro-1H-carbazol-9(2H)-yl)acetic acid]
11 | 41 | CN(c1ncc(-c2ccccc2)cn1)[C@H]1CCc2c(c3cc(F)ccc3n2CC(=O)O)C1 [Example 30, (3S)-2-(6-fluoro-3-(methyl(5-phenylpyrimidin-2-yl)amino)-3,4-dihydro-1H-carbazol-9(2H)-yl)acetic acid]
9.8 | 8 | CN(c1ccc(F)cn1)[C@H]1CCc2c(c3cc(F)ccc3n2CC(=O)O)C1 [Example 36, (3S)-2-(6-fluoro-3-((5-fluoropyridin-2-yl)(methyl)amino)-3,4-dihydro-1H-carbazol-9(2H)-yl)acetic acid]
9.1 | 20 | CN(c1ccc(C(F)(F)F)cn1)[C@H]1CCc2c(c3cc(F)ccc3n2CC(=O)O)C1 [Example 35, (3S)-2-(6-fluoro-3-(methyl(5-(trifluoromethyl)pyridin-2-yl)amino)-3,4-dihydro-1H-carbazol-9(2H)-yl)acetic acid]
8.1 | 40 | CN(c1nc2ccccc2s1)[C@H]1CCc2c(c3cc(F)ccc3n2CC(=O)O)C1 [Example 20, (3S)-2-(3-(benzo[d]thiazol-2-yl(methyl)amino)-6-fluoro-3,4-dihydro-1H-carbazol-9(2H)-yl)acetic acid]
